Reference: a compilation of properties of binary mixtures (doi:10.1007/s10953-013-9990-0)

Assay: xn = mol fraction of the nth substance listed
Settings: 101 kPa

CCCC[N+]1(C)CCCC1.O=S(=O)([N-]S(=O)(=O)C(F)(F)F)C(F)(F)F + CC(C)O
speed of sound [m/s]
Settings | 298.15 K | 303.15 K | 308.15 K
x2 = 0 | 1269.3 | – | 1247.1
x2 = 0.0593 | 1264.9 | 1253.7 | 1243.5
x2 = 0.1319 | – | 1248.7 | 1237.4
x2 = 0.2344 | 1250.8 | 1239.1 | –
x2 = 0.3929 | 1234.8 | 1222.9 | 1211.2
x2 = 0.4935 | 1222.3 | 1210.2 | 1198.1
x2 = 0.5927 | 1207.5 | – | 1182.9
x2 = 0.718 | 1184.1 | 1171.2 | 1158.4
x2 = 0.8015 | 1165.1 | 1151.8 | 1138.5
x2 = 0.9018 | 1143 | 1129.1 | 1115.9
x2 = 0.9491 | 1138.1 | 1122.5 | 1106.8

CCCC[n+]1cccc(C)c1.O=S(=O)([N-]S(=O)(=O)C(F)(F)F)C(F)(F)F + CC(C)O
speed of sound [m/s]
Settings | 298.15 K | 303.15 K | 308.15 K
x2 = 0 | 1248.3 | 1237.1 | 1226
x2 = 0.0534 | 1245.3 | 1234.1 | 1222.2
x2 = 0.1034 | – | 1231 | 1219.8
x2 = 0.1577 | – | 1227.4 | 1216.1
x2 = 0.1756 | 1237 | 1225.7 | 1214.3
x2 = 0.3062 | 1227.4 | 1215.8 | 1204.2
x2 = 0.3957 | 1220.8 | 1209 | 1197.1
x2 = 0.51 | 1208.6 | 1197.3 | 1185.3
x2 = 0.6002 | 1197.7 | 1185.3 | 1173
x2 = 0.7046 | 1182.1 | 1169.3 | 1156.5
x2 = 0.8006 | – | – | 1135.4
x2 = 0.8988 | – | 1129.5 | 1115.2

CC(C)O + CCCC[N+]1(C)CCCC1.O=S(=O)([N-]S(=O)(=O)C(F)(F)F)C(F)(F)F
x1 = 1
Settings | speed of sound [m/s]
298.15 K | 1139.6
303.15 K | 1122
308.15 K | 1104.4

CCCO + CCCC[N+]1(C)CCCC1.O=S(=O)([N-]S(=O)(=O)C(F)(F)F)C(F)(F)F
x1 = 1
Settings | speed of sound [m/s]
298.15 K | 1206.4
303.15 K | 1189.3

CCO + CCCC[N+]1(C)CCCC1.O=S(=O)([N-]S(=O)(=O)C(F)(F)F)C(F)(F)F
x1 = 1
Settings | speed of sound [m/s]
303.15 K | 1126.7
308.15 K | 1109.8

CC(C)O + CCCC[n+]1cccc(C)c1.O=S(=O)([N-]S(=O)(=O)C(F)(F)F)C(F)(F)F
x1 = 1
Settings | speed of sound [m/s]
298.15 K | 1139.6
303.15 K | 1122

CCCO + CCCC[n+]1cccc(C)c1.O=S(=O)([N-]S(=O)(=O)C(F)(F)F)C(F)(F)F
x1 = 1
Settings | speed of sound [m/s]
298.15 K | 1206.4
303.15 K | 1189.3
308.15 K | 1172.3

CCO + CCCC[n+]1cccc(C)c1.O=S(=O)([N-]S(=O)(=O)C(F)(F)F)C(F)(F)F
x1 = 1
Settings | speed of sound [m/s]
298.15 K | 1143.6
303.15 K | 1126.7
308.15 K | 1109.8

CCCC[N+]1(C)CCCC1.O=S(=O)([N-]S(=O)(=O)C(F)(F)F)C(F)(F)F + CCCO
speed of sound [m/s]
Settings | x2 = 0 | x2 = 0.0545 | x2 = 0.0931 | x2 = 0.1903 | x2 = 0.2935 | x2 = 0.3972 | x2 = 0.5916 | x2 = 0.7837 | x2 = 0.8975 | x2 = 0.9472
298.15 K | 1269.3 | 1267 | 1264.9 | 1259.7 | – | 1246 | 1230 | 1201.2 | 1190.9 | –
303.15 K | 1258.1 | – | 1253.5 | 1248.2 | 1241.7 | 1234.2 | – | 1188 | 1176.4 | 1178
308.15 K | 1247.1 | 1244.4 | 1242.3 | 1236.9 | 1230.2 | 1222.5 | 1206 | 1175 | 1162 | 1162.7

CCCC[n+]1cccc(C)c1.O=S(=O)([N-]S(=O)(=O)C(F)(F)F)C(F)(F)F + CCCO
speed of sound [m/s]
Settings | 298.15 K | 303.15 K | 308.15 K
x2 = 0 | 1248.3 | 1237.1 | 1226
x2 = 0.0431 | – | 1235.4 | 1224.3
x2 = 0.0889 | 1244.5 | 1233.4 | 1222.3
x2 = 0.1564 | 1241.8 | – | 1219.1
x2 = 0.2913 | – | 1223.2 | 1211.8
x2 = 0.3788 | 1229.5 | 1217.9 | 1206.3
x2 = 0.5665 | 1215.6 | 1203.5 | 1191.5
x2 = 0.5901 | – | 1201.4 | 1189.3
x2 = 0.6913 | 1204 | 1191.4 | –
x2 = 0.8006 | 1194.1 | 1180.8 | 1167.7
x2 = 0.8947 | 1189.3 | 1174.9 | –
x2 = 0.9467 | 1193.4 | 1178 | 1162.7

CCCC[N+]1(C)CCCC1.O=S(=O)([N-]S(=O)(=O)C(F)(F)F)C(F)(F)F + CCO
speed of sound [m/s]
Settings | 298.15 K | 303.15 K | 308.15 K
x2 = 0 | 1269.3 | 1258.2 | 1247.1
x2 = 0.0586 | 1266.6 | 1255.3 | 1244.2
x2 = 0.1981 | 1258.6 | 1247.2 | 1235.9
x2 = 0.2834 | 1252.8 | 1241.3 | 1229.9
x2 = 0.4449 | 1238.4 | 1226.6 | 1215
x2 = 0.5133 | 1230.8 | 1218.9 | 1207.1
x2 = 0.6012 | 1219.2 | – | –
x2 = 0.7078 | – | 1189.2 | 1176.8
x2 = 0.7929 | 1184.8 | 1171.6 | –
x2 = 0.8997 | 1158.2 | 1144 | 1129.8
x2 = 0.9492 | – | 1133.2 | –

CCCC[n+]1cccc(C)c1.O=S(=O)([N-]S(=O)(=O)C(F)(F)F)C(F)(F)F + CCO
speed of sound [m/s]
Settings | 298.15 K | 303.15 K | 308.15 K
x2 = 0 | – | 1237.1 | –
x2 = 0.0533 | – | – | 1223.8
x2 = 0.0924 | 1244.5 | 1233.1 | –
x2 = 0.1963 | 1239.3 | 1227.9 | 1216.6
x2 = 0.3011 | 1233.2 | 1221.7 | 1210.3
x2 = 0.3959 | 1226.5 | 1214.9 | 1203.4
x2 = 0.4982 | – | 1206 | 1194.3
x2 = 0.599 | – | – | 1183.2
x2 = 0.6829 | 1195.9 | 1183.6 | 1171.3
x2 = 0.7355 | 1187.7 | 1175.2 | –
x2 = 0.8008 | 1176.4 | 1163.2 | 1150.3
x2 = 0.8991 | 1156.9 | 1142.8 | 1128.7
x2 = 0.9436 | 1149.9 | 1134.8 | 1119.9
